Measurements: patent US10059741B2 (priority 2015, dated 2018)
pEC50: −log10 of the molar value. Values joined by “and” are separate entries in the source; they are usually repeats but may differ in a detail not shown here. Identical values can stand only once. Like-named read-outs stand apart in the source and are kept apart here.

Legend:
[1] = tested on: influenza virus, various viral strains; assay: organism not typed; type: cell-based
[2] = tested on: Influenza B Brisbane/60/2008; assay: Cytopathic effect (CPE) inhibition in MDCK cells, neutral red; type: cell-based; conditions: Influenza B virus, MDCK; Influenza B Brisbane/60/2008; Neutral Red; read-out: EC50
[3] = tested on: Influenza A H3N2 Influenza A/Brisbane/10/2007; assay: microbe, parasite or virus in culture; type: cell-based, influenza A virus; conditions: Influenza A virus, H3N2, MDCK
[4] = tested on: Influenza B/Brisbane/60/2008; assay: microbe, parasite or virus in culture; type: cell-based; conditions: Influenza B virus, MDCK; Influenza B Influenza B/Brisbane/60/2008; CellTiter-Glo
[5] = tested on: H5N1 A/Hong Kong/213/2003; assay: microbe, parasite or virus in culture; type: cell-based, influenza A virus; conditions: Influenza A virus, H5N1, MDCK
H5N1 A/Duck/MN/1525/81 = assay: microbe, parasite or virus in culture; type: cell-based, influenza A virus; conditions: Influenza A H5N1 Duck/MN/1525/81, Neutral Red
[6] = tested on: Influenza A H1N1 Influenza A/Texas/4/2009; assay: microbe, parasite or virus in culture; type: cell-based, influenza A virus; conditions: Influenza A virus, H1N1, MDCK
[7] = tested on: Influenza A H1N1 Influenza A/California/7/2009; assay: microbe, parasite or virus in culture; type: cell-based, influenza A virus; conditions: Influenza A virus, H1N1, MDCK
H3N2 Perth/16/2009 [8] = assay: microbe, parasite or virus in culture; type: cell-based, influenza A virus; conditions: Influenza A virus, H3N2, MDCK, read-out: EC50 (μM) H3N2 Perth/16/2009
H1N1 California/07/2009 [9] = assay: microbe, parasite or virus in culture; type: cell-based, influenza A virus; conditions: Influenza A virus, H1N1, MDCK
[10] = tested on: Influenza B Florida/04/2006; assay: Cytopathic effect (CPE) inhibition in MDCK cells, neutral red; type: cell-based; conditions: Influenza B virus, MDCK; Influenza B Florida/04/2006; Neutral Red; read-out: EC50
H3N2 Perth/16/2009 [11] = assay: microbe, parasite or virus in culture; type: cell-based, influenza A virus; conditions: Influenza A virus, H3N2, MDCK, read-out: EC50 (μM) H3N2 Perth/16/2009; remark: listed apart in the source
in vitro = conditions: dog
[12] = tested on: Madin Darby canine kidney (MDCK) cells
H7N9 A/Anhui/1/2013 = assay: microbe, parasite or virus in culture; type: cell-based, influenza A virus; conditions: Influenza A virus, H7N9, MDCK
H1N1 A/Brisbane/59/2007 = assay: Cytopathic effect (CPE) inhibition in MDCK cells, neutral red; type: cell-based, influenza A virus
[13] = tested on: influenza virus, various viral strains; assay: Influenza antiviral evaluation assay (CPE, neutral red dye uptake) in MDCK cells against various viral strains (Tables 8, 9); type: cell-based
H1N1 California/07/2009 [14] = assay: microbe, parasite or virus in culture; type: cell-based, influenza A virus
[15] = MDCK, Influenza A H5N1 Duck/MN/1525/81, Visual

Q: For `NC(=O)c1ncn([C@@H]2O[C@H](CO)[C@@H](O)[C@H]2O)n1` [Ribavirin, reference compound], which EC90 [1] is on record?
A: The EC90 was 4.1 µM.

Q: And the EC90 ([1]; MDCK)?
A: The EC90 was 5.2 µM.

Q: And the pEC50 ([1]; MDCK, Influenza A H1N1 A/Solomon Is./3/2006-M, Drug Assay Visual)?
A: The pEC50 was 5.00.

Q: What about the pEC50 ([1]; MDCK, Influenza A H1N1 California/04/2009-M, Visual) of the same molecule?
A: The pEC50 was 5.00.

Q: And the pEC50 ([1]; MDCK, Influenza A H1N1 Solomon Is./3/2006-M, Visual)?
A: Its pEC50 is 5.00.

Q: What about the pEC50 ([1]; MDCK, Influenza A H3N2 Victoria/3/75-M, Visual) of the same molecule?
A: The pEC50 was 5.00.

Q: And the pEC50 ([1]; MDCK, Influenza A H5N1 A/Hong Kong/213/2003, Drug Assay Visual)?
A: The pEC50 was 5.38.

Q: What about the pEC50 [1, 15] of the same molecule?
A: The pEC50 was 5.00.

Q: What about the EC90 [1, 15] of the same molecule?
A: The EC90 was 9 µM.

Q: What about the pEC50 ([1]; MDCK, Influenza A H5N1 Hong Kong/213/2003, Visual) of the same molecule?
A: The pEC50 was 4.37.

Q: What about the pEC50 ([1]; MDCK, Influenza A H7N9 A/Anhui/1/2013, Drug Assay Visual) of the same molecule?
A: The pEC50 was 5.49.

Q: And the pEC50 ([1]; MDCK, Influenza B Sichuan/379/99-M, Visual)?
A: Its pEC50 is 5.00.

Q: What about the pEC50 [2] of the same molecule?
A: The pEC50 was 5.25.

Q: And the pEC50 [3]?
A: The pEC50 was 5.55.

Q: And the EC90 [3]?
A: Its EC90 is 11.8 µM.

Q: And the pEC50 [4]?
A: Its pEC50 is 4.18.

Q: And the EC90 [4]?
A: The EC90 was > 100 µM.

Q: What about the pEC50 ([5]; Influenza A H5N1 A/Hong Kong/213/2003, Drug Assay Neutral Red) of the same molecule?
A: The pEC50 was 5.44.

Q: And the pEC50 ([5]; Influenza A H5N1 Hong Kong/213/2003, Neutral Red)?
A: Its pEC50 is 4.41.

Q: What about the pEC50 (H5N1 A/Duck/MN/1525/81) of the same molecule?
A: Its pEC50 is 5.25.

Q: And the pEC50 (H5N1 A/Duck/MN/1525/81; Influenza A virus, H5N1, MDCK)?
A: Its pEC50 is 5.02.

Q: And the pEC50 [6]?
A: The pEC50 was 4.83.

Q: What about the EC90 [6] of the same molecule?
A: The EC90 was > 100 µM.

Q: And the pEC50 [7]?
A: Its pEC50 is 5.19.

Q: And the EC90 [7]?
A: The EC90 was 16.2 µM.

Q: And the EC50 (H3N2 Perth/16/2009 [8])?
A: The EC50 was 1.5 to 10 µM.

Q: What about the EC90 (H1N1 California/07/2009 [9]) of the same molecule?
A: The EC90 was 5.5 µM.

Q: And the EC50 (H1N1 California/07/2009 [9]; read-out: EC50 (μM) H1N1 California/07/2009)?
A: Its EC50 is 1.5 to 10 µM.

Q: What about the pEC50 [10] of the same molecule?
A: The pEC50 was 5.32.

Q: And the EC50 (H3N2 Perth/16/2009 [11])?
A: The EC50 was 10 to 25 µM.

Q: What about the CC50 (in vitro; CC50 (μM) H1N1 California/07/2009) of the same molecule?
A: Its CC50 is > 100 µM.

Q: And the CC50 (in vitro; CC50 (μM) H3N2 Perth/16/2009)?
A: The CC50 was > 100 µM.

Q: And the CC50 ([12]; MDCK cells, run with Influenza A H5N1 Duck/MN/1525/81, Neutral Red)?
A: Its CC50 is > 320 µM.

Q: What about the CC50 ([12]; MDCK cells, run with Influenza A H5N1 Duck/MN/1525/81, Visual) of the same molecule?
A: Its CC50 is > 320 µM.

Q: What about the CC50 ([12]; MDCK cells, run with Influenza A H5N1 Hong Kong/213/2003, Neutral Red) of the same molecule?
A: Its CC50 is > 1000 µM.

Q: And the CC50 ([12]; MDCK cells, run with Influenza A H5N1 Hong Kong/213/2003, Visual)?
A: Its CC50 is > 1000 µM.

Q: And the CC50 ([12]; run with Influenza A H5N1 A/Hong Kong/213/2003, Neutral Red)?
A: The CC50 was > 1000 µM.

Q: And the CC50 ([12]; run with Influenza A H5N1 A/Hong Kong/213/2003, Visual)?
A: Its CC50 is > 1000 µM.

Q: And the CC50 ([12]; run with Influenza A H7N9 A/Anhui/1/2013, Neutral Red)?
A: The CC50 was > 1000 µM.

Q: And the CC50 ([12]; run with Influenza A H7N9 A/Anhui/1/2013, Visual)?
A: The CC50 was > 1000 µM.

Q: And the pEC50 (H7N9 A/Anhui/1/2013; Influenza A H7H9 A/Anhui/1/2013, Neutral Red)?
A: Its pEC50 is 4.74.

Q: What about the pEC50 (H7N9 A/Anhui/1/2013; Influenza A H7N9 A/Anhui/1/2013, Drug Assay Neutral Red) of the same molecule?
A: Its pEC50 is 5.52.

Q: And the pEC50 (H1N1 A/Brisbane/59/2007)?
A: Its pEC50 is 5.25.

Q: What about the pEC50 (H1N1 A/Brisbane/59/2007; Influenza A virus, H1N1, MDCK) of the same molecule?
A: Its pEC50 is 5.14.

Q: What about the pEC50 [13] of the same molecule?
A: The pEC50 was 5.03 and 5.02 and 5.05.

Q: What about the pEC50 ([13]; MDCK) of the same molecule?
A: Its pEC50 is 5.01.

Q: And the pEC50 (H1N1 California/07/2009 [14])?
A: The pEC50 was 5.07 and 5.17 and 5.00.

Q: What about the EC50 (H1N1 California/07/2009 [14]; Influenza A virus, H1N1, MDCK, read-out: EC50 (μM) H1N1 California/07/2009) of the same molecule?
A: The EC50 was 10 to 25 µM.
